The values below are quoted from earlier work in patent publication US20190142336A1, “SYSTEMS AND METHODS FOR DETERMINING RESPONSE TO ANESTHETIC AND SEDATIVE DRUGS USING MARKERS OF BRAIN FUNCTION” (THE GENERAL HOSPITAL CORPORATION, priority 2016, published 2019).

Data set [1] concerns dopamine and norepinephrine reuptake transporters.
The conditions of data set [2]: plethysmography and blood gas.

Turning to `COC(=O)C(c1ccccc1)C1CCCCN1` (stereo not drawn) [methylphenidate], in data set [1] (isoflurane general anesthesia), the “emergence from general anesthesia” value is “actively induces emergence”. For the same compound, the minute ventilation result in data set [2] was “increases minute ventilation”.
Take `O=C(CCCN1CC=C(n2c(=O)[nH]c3ccccc32)CC1)c1ccc(F)cc1` [droperidol]: the “behavioral and respiratory effects induced by methylphenidate” value in data set [1] (given against methylphenidate-induced arousal) is listed as “inhibited”.
